In patent US10183063B2, “Injection composition comprising hyaluronidase for removal of topical fat” (priority 2016, dated 2019):

What was measured:
topical fat = format: in vivo, human
Source text: In order to find the optimal doses of hyaluronidase facilitating lipolysis, the present inventor conducted experiments with hyaluronidase unit doses of 10 IU, 50 IU, 100 IU, 150 IU, 200 IU, 250 IU, 300 IU, 350 IU, 400 IU, 450 IU, 500 IU, 550 IU, 600 IU, 650 IU, 700 IU, 750 IU, 800 IU, 850 IU, 900 IU, 950 IU, 1000 IU, 1050 IU, 1100 IU, 1150 IU, 1200 IU, 1250 IU, 1300 IU, 1350 IU, 1400 IU, 1450 IU, and 1500 IU.
It was shown in clinical trials that at the above dose range, if the injection composition is administered in a volume of 1 cc containing 300 IU of hyaluronidase, the diameter of the diffusion range is about 1 cm. Thus, with the hyaluronidase dose set at 300 IU to 600 IU, by injecting the composition at a volume of 0.5 to 2 cc depending on the hyaluronidase dose and at injection points with an interval of 0.5 to 1.5 cm between the injection points, injection at narrow intervals is possible and consequently, lipolysis occurs evenly. Furthermore, a lifting effect occurs concomitantly where skin resilience is improved by the promotion of collagen production through stimulation of the skin by the injection needle.
Thus, by administering an injection composition of the present invention having the above compositional ranges, the side effects from using the drugs are minimized and fat removal over a wide area can be carried out using a minimal volume.
It was shown in clinical trials that at a hyaluronidase of 300 IU, the diameter of the diffusion range for the injection composition is about 1 cm. Thus, by injecting the composition at narrow intervals between injection points of 0.5 to 2 cm, even fat removal as well as collagen production by skin stimulation can be facilitated.

| Compound | Lipolysis (topical fat; unit dose 300 IU or below) | Fat removal (topical fat; unit dose above 600 IU) | Fat removal effect and side effects (topical fat; unit dose of 300 IU to 600 IU) | minimum amount of hyaluronidase exhibiting efficacy (topical fat; unit dose per injection) | time until the onset of action for the local anesthetic effect, later compared to lidocaine |
| --- | --- | --- | --- | --- | --- |
| hyaluronidase | sufficient lipolysis did not occur | excellent effects were obtained in terms of fat removal | possible to ensure the fat removal effect while minimizing side effects | 300 IU | – |
| CCN(CC)CCOC(=O)c1ccc(N)cc1 [procaine] | – | – | – | – | more than 10 minutes |
